# Source: paper PMC5460445, “Pharmacokinetic Comparison of 20(R)- and 20(S)-Ginsenoside Rh1 and 20(R)- and 20(S)-Ginsenoside Rg3 in Rat Plasma following Oral Administration of Radix Ginseng Rubra and Sheng-Mai-San Extracts” (Evidence-based Complementary and Alternative Medicine : eCAM, 2017)
# Test: Pharmacokinetic study in rats after oral administration of Radix Ginseng Rubra or SMS extracts (LC-MS of plasma)
# Format: in vivo, Male Sprague-Dawley rats
# Set-up: AUC(0–t) / AUC(0–∞): unit not given here
# Settings: for T max / AUC(0–t) / AUC(0–∞) / C max / t 1/2: rat plasma; for AUC(0–t) / AUC(0–∞) / C max / t 1/2: mean ± SD
# Excerpt: A Shimadzu 2020 LC-MS system, with an electrospray ionization interface (ESI) source and Shimadzu LCMS LabSolution Workstation software for data processing, was utilized to perform the analytical procedures. The system includes two Shimadzu LC-20AD pumps, a Shimadzu SIL-20A autosampler, a Shimadzu CTO-20A column oven, a CBM-20A system controller, and a Shimadzu DGU-20A3 online degasser. A Q-array-octapole-quadrupole mass analyzer was used as the detector.
# The chromatographic separation was carried on a Diamonsil C18 column (150 mm × 4.6 mm id, 5 μm; Dikma, China) with the mobile phase containing 0.5 mmol/L ammonium chloride in double-distilled water (A) and acetonitrile (B) at a flow rate of 1.0 mL/min. A diverter valve was used to direct 0.3 mL/min HPLC elute to MS detector and 0.7 mL/min elute to a waste container. A gradient elution program was used as follows: 0.01→6.0 min, 38% B; 6.0→6.5 min, 38→50% B; 6.5→15.0 min, 50% B; 15.0→15.5 min, 50→38% B. The column temperature was kept constant at 40°C.
# The negative-ion electrospray ionization mode was utilized under the following source conditions: curved desolvation line (CDL) temperature, 250°C; block temperature, 400°C; interface temperature, 350°C; nebulizing gas flow rate, 1.5 L/min; drying gas flow rate, 10 L/min. CDL voltage, 0 V; Q-array DC (direct current) voltage, 0 V; interface voltage and RF ([…] frequency) voltage were fixed as those in tuning. The chlorinated adducts of molecular ions [M + Cl]^− of 20(R)-ginsenoside Rh1 and 20(S)-ginsenoside Rh1 at m/z 673.45, 20(R)-ginsenoside Rg3 and 20(S)-ginsenoside Rg3 at m/z 819.60, and digoxin (IS) at m/z 815.60 were monitored in selected ion monitoring (SIM) mode.
# Radix Ginseng Rubra and Radix Ophiopogonis were cut into slices and Fructus Schisandrae was scrunched into powder before use. Three drugs were mixed in the ratio of 1 : 3 : 1.5 and the total weight was 110 g. The mixture was extracted with water for three times (1 : 10, 1 : 8, and 1 : 6, w/v) at 100°C, 1 h for each time. The SMS extract was obtained and condensed to 0.55 g/mL crude drug. 20 g Radix Ginseng Rubra was treated as above and the extract was condensed to 0.1 g/mL crude drug. SMS and Radix Ginseng Rubra concentrated solution was subjected to D101 macroporous resin and eluted with water followed by 95% ethanol. The 95% ethanol eluate was further concentrated to 5.5 g/mL crude drug for SMS and 1.0 g/mL crude drug for Radix Ginseng Rubra before use.
# An aliquot of 300 μL plasma sample was transferred into a centrifuge tube together with 10 μL of IS solution. After vortex-mixing for 30 s, the analytes and IS were extracted from plasma with n-butanol for three times (1 : 3, 1 : 2, and 1 : 2, v/v). Then the organic layer was transferred into another centrifuge tube and evaporated to dryness at 37°C. Finally, the residue was reconstituted in 20 μL methanol and centrifuged at 12,000 ×g for 10 min; 10 μL aliquot was injected into chromatographic system for analysis.
# Male Sprague-Dawley rats, 193–215 g in weight, were supplied by Shanghai Slater Experimental Animal Feeding Center (Shanghai, China). The rats were kept in an air-conditioned animal quarter at a temperature of 22 ± 2°C and a relative humidity of 50 ± 10%. The animals were acclimatized to the facilities for four days and then fasted with free access to water for 12 h prior to experiment. Animal experiments were carried out in accordance with the Regulations of Experimental Animal Administration issued by the Ministry of Science and Technology of China. All animal protocols were approved by the Ethics Committee on the Care and Use of Laboratory Animals of China pharmaceutical University.
# Rats were divided randomly into two groups (5 rats in each time point per group) and given an oral dose of 1.35 mL/100 g Radix Ginseng Rubra and SMS extracts, respectively, which was derived from the dose in clinical practice with correction. […]
# [1] = oral Radix Ginseng Rubra extract 1.35 mL/100 g
structure (smiles),measurement,setting,value
"CC(C)=CCCC(C)(O)C1CCC2C1C(O)CC1C2(C)CC(OC2OC(CO)C(O)C(O)C2O)C2C(C)(C)C(O)CCC21C [20(S)-Rh1, 20(S)-ginsenoside Rh1]",AUCC,"oral Radix Ginseng Rubra extract 1.35 mL/100 g, dose-corrected AUC0–∞",159.20 ± 26.03
same,T max,[1],0.50 h
same,AUC(0–t),[1],157.53 ± 25.46
same,AUC(0–∞),[1],159.27 ± 26.03
same,C max,[1],0.15249 ± 0.03098 µg/mL
same,t 1/2,[1],2.85 ± 0.69 h
same,T max,oral SMS extract 1.35 mL/100 g,1.50 h
same,AUC(0–t),oral SMS extract 1.35 mL/100 g,409.48 ± 62.23
same,AUC(0–∞),oral SMS extract 1.35 mL/100 g,419.75 ± 65.31
same,C max,oral SMS extract 1.35 mL/100 g,0.19534 ± 0.04491 µg/mL
same,t 1/2,oral SMS extract 1.35 mL/100 g,4.21 ± 1.05^∗ h
